According to patent publication US20140142352A1, “BUTANOL PURIFICATION” (BUTAMAX ADVANCED BIOFUELS LLC, priority 2012, published 2014):
Like-named read-outs stand apart in the source and are kept apart here. One block for each molecule: values may come before it.

Key:
[1] = Liquid-liquid extraction of carboxylic acids from fermentation medium into oleyl alcohol at different pH; type: physicochemical
[2] = 30 min, pH 5.3
[3] = Liquid-liquid extraction of isobutyric acid from fermentation medium into SOFA at different pH; type: physicochemical
[4] = Liquid-liquid extraction of isobutyric acid from fermentation medium into oleic acid at different pH; type: physicochemical
[5] = Liquid-liquid extraction of isobutyric acid from fermentation medium into COFA at different pH; type: physicochemical
anaerobic inoculum = assay: Acetate Toxicity Assays (ATA); type: cell-based
Protocol: For the BMP tests, iBA provided the sole source of substrate over a range of conditions. Feed controls were prepared at organic loadings that spanned the lower and upper range of loadings used in the ATA and BMP tests, and gas production was monitored. Samples were prepared in triplicate with the seed concentration for all test bottles being 2000 mg/L. The feed control and ATA biodegradable synthetic feed composition contained 4000 mg/L acetate and 2000 mg/L propionate. The inorganic nutrient media used was similar to media presented in Table 5.1 of […], Anaerobic Biotechnology for Industrial […], Vanderbilt University, […], Nashville, p 115 (1996). The bottles were maintained at a temperature of 35° C.

[6] = Reactive liquid-liquid extraction from aqueous compound solution into OA or OA with TBP, TOA or A336: aqueous concentrations; type: physicochemical; conditions: pH=5.3, 30° C.
isobutanologen PNY 2242 = assay: SSF corn mash fermentation of isobutanologen with extractant layer; type: cell-based
[7] = pH 3.14, ISPR ratio (Aq):(Oleyl Alcohol) 1:1
[8] = pH 3.14, ISPR ratio (Aq):(Oleyl Alcohol) 1:3
[9] = pH 4.94, ISPR ratio (Aq):(Oleyl Alcohol) 1:1
[10] = pH 4.94, ISPR ratio (Aq):(Oleyl Alcohol) 1:3
[11] = pH 7.24, ISPR ratio (Aq):(Oleyl Alcohol) 1:1
[12] = pH 7.24, ISPR ratio (Aq):(Oleyl Alcohol) 1:3
[13] = 2 mL extractant on 2 mL aqueous solution
[14] = 6 mL extractant on 2 mL aqueous solution
[15] = 10 mL extractant on 2 mL aqueous solution

SMILES: CC(=O)O [Acetic Acid, acetic acid]
- Conc. of acid in aqueous broth after extraction [1, 7]: 140040 µM
- Conc. of acid in aqueous broth after extraction [1, 8]: 106430 µM
- Conc. of acid in aqueous broth after extraction [1, 9]: 162730 µM
- Conc. of acid in aqueous broth after extraction [1, 10]: 159230 µM
- Conc. of acid in aqueous broth after extraction [1, 11]: 169150 µM
- Conc. of acid in aqueous broth after extraction [1, 12]: 173630 µM

SMILES: CC(C)C(=O)O [Isobutyric Acid, isobutyric acid]
- Conc. of acid in aqueous broth after extraction [1, 7]: 19770 µM
- Conc. of acid in aqueous broth after extraction [1, 8]: 8100 µM
- Conc. of acid in aqueous broth after extraction [1, 9]: 46140 µM
- Conc. of acid in aqueous broth after extraction [1, 10]: 30830 µM
- Conc. of acid in aqueous broth after extraction [1, 11]: 93360 µM
- Conc. of acid in aqueous broth after extraction [1, 12]: 91950 µM
- Conc. Isobutyric Acid (%) ([3]; pH 3.93, ISPR ratio (Aq):(SOFA) 1:1): 31.37%
- Conc. Isobutyric Acid (%) ([3]; pH 3.93, ISPR ratio (Aq):(SOFA) 1:3): 12.68%
- Conc. Isobutyric Acid (%) ([3]; pH 4.92, ISPR ratio (Aq):(SOFA) 1:1): 53.76%
- Conc. Isobutyric Acid (%) ([3]; pH 4.92, ISPR ratio (Aq):(SOFA) 1:3): 27.63%
- Conc. Isobutyric Acid (%) ([3]; pH 6.64, ISPR ratio (Aq):(SOFA) 1:1): 74.48%
- Conc. Isobutyric Acid (%) ([3]; pH 6.64, ISPR ratio (Aq):(SOFA) 1:3): 33.23%
- Conc. Isobutyric Acid (%) ([4]; pH 4.08, ISPR ratio (Aq):(Oleic Acid) 1:1): 29.60%
- Conc. Isobutyric Acid (%) ([4]; pH 4.08, ISPR ratio (Aq):(Oleic Acid) 1:3): 13.00%
- Conc. Isobutyric Acid (%) ([4]; pH 4.82, ISPR ratio (Aq):(Oleic Acid) 1:1): 49.16%
- Conc. Isobutyric Acid (%) ([4]; pH 4.82, ISPR ratio (Aq):(Oleic Acid) 1:3): 23.36%
- Conc. Isobutyric Acid (%) ([4]; pH 6.95, ISPR ratio (Aq):(Oleic Acid) 1:1): 67.35%
- Conc. Isobutyric Acid (%) ([4]; pH 6.95, ISPR ratio (Aq):(Oleic Acid) 1:3): 28.60%
- Conc. Isobutyric Acid (%) ([5]; pH 4.08, ISPR ratio (Aq):(COFA) 1:1): 29.81%
- Conc. Isobutyric Acid (%) ([5]; pH 4.08, ISPR ratio (Aq):(COFA) 1:3): 12.81%
- Conc. Isobutyric Acid (%) ([5]; pH 4.82, ISPR ratio (Aq):(COFA) 1:1): 52.89%
- Conc. Isobutyric Acid (%) ([5]; pH 4.82, ISPR ratio (Aq):(COFA) 1:3): 30.00%
- Conc. Isobutyric Acid (%) ([5]; pH 6.95, ISPR ratio (Aq):(COFA) 1:1): 70.40%
- Conc. Isobutyric Acid (%) ([5]; pH 6.95, ISPR ratio (Aq):(COFA) 1:3): 31.27%
- Cumulative Gas Production (% Theoretical Max) (anaerobic inoculum; ATA-syn 550 ppm iBA, Day 2): 18 % Theoretical Max
- Cumulative Gas Production (% Theoretical Max) (anaerobic inoculum; ATA-syn 550 ppm iBA, Day 4): 45 % Theoretical Max
- Cumulative Gas Production (% Theoretical Max) (anaerobic inoculum; ATA-syn 550 ppm iBA, Day 6): 65 % Theoretical Max
- Cumulative Gas Production (% Theoretical Max) (anaerobic inoculum; ATA-syn 550 ppm iBA, Day 10): 82 % Theoretical Max
- Cumulative Gas Production (% Theoretical Max) (anaerobic inoculum; ATA-syn 550 ppm iBA, Day 12): 85 % Theoretical Max
- Cumulative Gas Production (% Theoretical Max) (anaerobic inoculum; ATA-syn 550 ppm iBA, Day 15): 86 % Theoretical Max
- Cumulative Gas Production (% Theoretical Max) (anaerobic inoculum; ATA-syn 825 ppm iBA, Day 2): 14 % Theoretical Max
- Cumulative Gas Production (% Theoretical Max) (anaerobic inoculum; ATA-syn 825 ppm iBA, Day 4): 36 % Theoretical Max
- Cumulative Gas Production (% Theoretical Max) (anaerobic inoculum; ATA-syn 825 ppm iBA, Day 6): 56 % Theoretical Max
- Cumulative Gas Production (% Theoretical Max) (anaerobic inoculum; ATA-syn 825 ppm iBA, Day 10): 82 % Theoretical Max
- Cumulative Gas Production (% Theoretical Max) (anaerobic inoculum; ATA-syn 825 ppm iBA, Day 12): 83 % Theoretical Max
- Cumulative Gas Production (% Theoretical Max) (anaerobic inoculum; ATA-syn 825 ppm iBA, Day 15): 84 % Theoretical Max
- Cumulative Gas Production (% Theoretical Max) (anaerobic inoculum; ATA-syn 1100 ppm iBA, Day 2): 14 % Theoretical Max
- Cumulative Gas Production (% Theoretical Max) (anaerobic inoculum; ATA-syn 1100 ppm iBA, Day 4): 36 % Theoretical Max
- Cumulative Gas Production (% Theoretical Max) (anaerobic inoculum; ATA-syn 1100 ppm iBA, Day 6): 51 % Theoretical Max
- Cumulative Gas Production (% Theoretical Max) (anaerobic inoculum; ATA-syn 1100 ppm iBA, Day 10): 82 % Theoretical Max
- Cumulative Gas Production (% Theoretical Max) (anaerobic inoculum; ATA-syn 1100 ppm iBA, Day 12): 85 % Theoretical Max
- Cumulative Gas Production (% Theoretical Max) (anaerobic inoculum; ATA-syn 1100 ppm iBA, Day 15): 85 % Theoretical Max
- inhibition of gas generation (anaerobic inoculum; iBA concentrations of up to 1100 parts per million (ppm)): did not inhibit gas generation
- Partition coefficients (P) [HA] org/aq [2]: 1.91 mol/mol
- KE (+A336, oleyl alcohol with 100 mM of Aliquat 336): 0.036
- KE (+TBA, oleyl alcohol with 100 mM of tributyl phosphate): 0.000
- KE (+TOA, oleyl alcohol with 100 mM of trioctyl amine): 0.010

SMILES: CCCCCCCC/C=C\CCCCCCCCO [OA, oleyl alcohol]
- Acetic Acid (mM), aqueous concentration after addition of extractant [6, 13]: 13.13 mM
- Formic Acid (mM), aqueous concentration after addition of extractant [6, 13]: 11.96 mM
- Isobutanol (mM), aqueous concentration after addition of extractant [6, 13]: 3.01 mM
- Isobutyric Acid (mM), aqueous concentration after addition of extractant [6, 13]: 8.01 mM
- MES (AU), aqueous concentration after addition of extractant [6, 13]: 6954908 AU
- Phosphate (AU), aqueous concentration after addition of extractant [6, 13]: 656297 AU
- Acetic Acid (mM), aqueous concentration after addition of extractant [6, 14]: 12.98 mM
- Formic Acid (mM), aqueous concentration after addition of extractant [6, 14]: 12.68 mM
- Isobutanol (mM), aqueous concentration after addition of extractant [6, 14]: 1.19 mM
- Isobutyric Acid (mM), aqueous concentration after addition of extractant [6, 14]: 4.95 mM
- MES (AU), aqueous concentration after addition of extractant [6, 14]: 7135183 AU
- Phosphate (AU), aqueous concentration after addition of extractant [6, 14]: 673645 AU
- Acetic Acid (mM), aqueous concentration after addition of extractant [6, 15]: 12.73 mM
- Formic Acid (mM), aqueous concentration after addition of extractant [6, 15]: 13.05 mM
- Isobutanol (mM), aqueous concentration after addition of extractant [6, 15]: 0.77 mM
- Isobutyric Acid (mM), aqueous concentration after addition of extractant [6, 15]: 3.57 mM
- MES (AU), aqueous concentration after addition of extractant [6, 15]: 7168671 AU
- Phosphate (AU), aqueous concentration after addition of extractant [6, 15]: 676874 AU
- performance of the butanologen (glucose consumption, isobutanol production, FIG. 4) (isobutanologen PNY 2242; 48 hours, extractant as LLX layer): performed best
- C (g/c) [g/L], free glucose during the SSF (isobutanologen PNY 2242; EPT 3.67 h): 37.2 g/L
- C (g/c) [g/L], free glucose during the SSF (isobutanologen PNY 2242; EPT 21.00 h): 34.60 g/L
- C (g/c) [g/L], free glucose during the SSF (isobutanologen PNY 2242; EPT 28.00 h): 29.7 g/L
- C (g/c) [g/L], free glucose during the SSF (isobutanologen PNY 2242; EPT 48.00 h): 1.20 g/L

More lines, now with the values ahead:

- Conc. of acid in aqueous broth after extraction [1, 7]: 54070 µM
- Conc. of acid in aqueous broth after extraction [1, 8]: 40280 µM
- Conc. of acid in aqueous broth after extraction [1, 9]: 72000 µM
- Conc. of acid in aqueous broth after extraction [1, 10]: 71860 µM
- Conc. of acid in aqueous broth after extraction [1, 11]: 72460 µM
- Conc. of acid in aqueous broth after extraction [1, 12]: 73310 µM
SMILES: CC(C)(O)CC(=O)O [HMB]

- Partition coefficients (P) [HA] org/aq [2]: 2.97 mol/mol
SMILES: CC(C)CO [Isobutanol, 2-methyl-1-propanol]

- efficiency of extraction of isobutyric acid (100 mM extractant in oleyl alcohol): less efficient
SMILES: CCCCCCCCN(CCCCCCCC)CCCCCCCC [TOA, tru-n-octylamine]
